SMILES strings stand for the structures.

The target of this assay is T1, hMAGL (Homo sapiens, UniProt Q99685).
T1 sequence (Q99685 1-303): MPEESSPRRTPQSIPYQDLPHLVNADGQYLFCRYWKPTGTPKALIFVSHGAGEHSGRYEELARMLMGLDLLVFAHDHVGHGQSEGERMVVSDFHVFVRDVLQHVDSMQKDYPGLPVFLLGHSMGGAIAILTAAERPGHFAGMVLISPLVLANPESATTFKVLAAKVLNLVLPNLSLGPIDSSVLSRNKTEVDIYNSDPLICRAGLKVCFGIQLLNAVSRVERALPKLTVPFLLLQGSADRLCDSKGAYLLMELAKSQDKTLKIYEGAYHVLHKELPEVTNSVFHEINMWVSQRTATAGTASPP
As to the kind of experiment: 2-AG assay: MAGL inhibition, hydrolysis of 2-arachidonoylglycerol to arachidonic acid followed by mass spectrometry. It counts as biochemical. Here is the method:
Compounds of formula (I) were profiled for MAGL inhibitory activity by determining the enzymatic activity by following the hydrolysis of the natural substrate 2-arachidonoylglycerol (2-AG) resulting in arachidonic acid, which can be followed by mass spectrometry. This assay is hereinafter abbreviated “2-AG assay”. The 2-AG assay was carried out in 384 well polypropylene assay plates. […] Compound dilutions were added to MAGL protein in assay buffer (50 mM TRIS, 1 mM EDTA, 0.01% (v/v) Tween-20, 2.5% (v/v) DMSO). After shaking, the plate was incubated for 15 min at RT. To start the reaction, 2-arachidonoylglycerol in assay buffer was added. The final concentrations in the assay was […] for MAGL protein and 8 μM 2-arachidonoylglyerol. After shaking and 30 min incubation at RT, the reaction was quenched by the addition of two assay volumes of acetonitrile containing 4 μM of d8-arachidonic acid. The amount of arachidonic acid formed was traced by an online SPE system (Agilent Rapidfire) coupled to a triple quadrupole mass spectrometer. A C18 SPE cartridge (Agilent G9205A) was used in an acetonitrile/water liquid setup. […] The activity of the compounds was calculated based on the ratio of intensities [arachidonic acid/d8-arachidonic acid].
`Cc1sc(CN2CC3(C2)CN(C(=O)N2CC4(CC(n5cnc(C6CC6)n5)C4)C2)C3)nc1C(F)(F)F` [Example 55, [6-(3-cyclopropyl-1,2,4-triazol-1-yl)-2-azaspiro[3.3]heptan-2-yl]-[6-[[5-methyl-4-(trifluoromethyl)thiazol-2-yl]methyl]-2,6-diazaspiro[3.3]heptan-2-yl]methanone] returned an IC50 of 11.8 nM.
For the molecule `CC(C)(C)c1ncc(CN2CC3(C2)CN(C(=O)N2CC4(CC(n5cnc(C(F)(F)F)n5)C4)C2)C3)s1` [Example 56, [6-[(2-tert-butylthiazol-5-yl)methyl]-2,6-diazaspiro[3.3]heptan-2-yl]-[6-[3-(trifluoromethyl)-1,2,4-triazol-1-yl]-2-azaspiro[3.3]heptan-2-yl]methanone], the IC50 amounted to 10.6 nM.
The value for `CC(C)(C)c1ncc(CN2CC3(C2)CN(C(=O)N2CC4(CC(n5cnc(C6CC6)n5)C4)C2)C3)s1` [Example 57, [6-[(2-tert-butylthiazol-5-yl)methyl]-2,6-diazaspiro[3.3]heptan-2-yl]-[6-(3-cyclopropyl-1,2,4-triazol-1-yl)-2-azaspiro[3.3]heptan-2-yl]methanone] was 5.1 nM; that for `CC(C)(C)c1ncc(CN2CC3(C2)CN(C(=O)N2CC4(CC(n5cnc(C6(O)CC6)n5)C4)C2)C3)s1` [Example 58, [6-[(2-tert-butylthiazol-5-yl)methyl]-2,6-diazaspiro[3.3]heptan-2-yl]-[6-[3-(1-hydroxycyclopropyl)-1,2,4-triazol-1-yl]-2-azaspiro[3.3]heptan-2-yl]methanone] was 8.12 nM.
In the case of `Cn1cc(OC2CC3(C2)CN(C(=O)N2CC4(CC(n5cnc(C6(O)CC6)n5)C4)C2)C3)c(C(F)(F)F)n1` [Example 59, [6-[3-(1-hydroxycyclopropyl)-1,2,4-triazol-1-yl]-2-azaspiro[3.3]heptan-2-yl]-[6-[1-methyl-3-(trifluoromethyl)pyrazol-4-yl]oxy-2-azaspiro[3.3]heptan-2-yl]methanone] it was 55.4 nM; in that of `O=C(N1CC2(CC(Cn3cc(C4(C(F)(F)F)CC4)cn3)C2)C1)N1CC2(CC(n3cnc(C4(O)CC4)n3)C2)C1` [Example 60, [6-[3-(1-hydroxycyclopropyl)-1,2,4-triazol-1-yl]-2-azaspiro[3.3]heptan-2-yl]-[6-[[4-[1-(trifluoromethyl)cyclopropyl]pyrazol-1-yl]methyl]-2-azaspiro[3.3]heptan-2-yl]methanone], 1.63 nM.
In the case of `O=C(N1CC2(CC(Cc3cn(C4CC4)nc3C(F)(F)F)C2)C1)N1CC2(CC(n3cnc(C(F)(F)F)n3)C2)C1` [Example 61, [6-[[1-cyclopropyl-3-(trifluoromethyl)pyrazol-4-yl]methyl]-2-azaspiro[3.3]heptan-2-yl]-[6-[3-(trifluoromethyl)-1,2,4-triazol-1-yl]-2-azaspiro[3.3]heptan-2-yl]methanone] it was 0.26 nM; in that of `O=C(N1CC2(CC(Cc3cn(C4CC4)nc3C(F)(F)F)C2)C1)N1CC2(CC(n3cnc(C4CC4)n3)C2)C1` [Example 62, [6-(3-cyclopropyl-1,2,4-triazol-1-yl)-2-azaspiro[3.3]heptan-2-yl]-[6-[[1-cyclopropyl-3-(trifluoromethyl)pyrazol-4-yl]methyl]-2-azaspiro[3.3]heptan-2-yl]methanone], 0.14 nM; in that of `O=C(N1CC2(CC(Cc3cn(C4CC4)nc3C(F)(F)F)C2)C1)N1CC2(CC(n3cnc(C4(O)CC4)n3)C2)C1` [Example 63, [6-[[1-cyclopropyl-3-(trifluoromethyl)pyrazol-4-yl]methyl]-2-azaspiro[3.3]heptan-2-yl]-[6-[3-(1-hydroxycyclopropyl)-1,2,4-triazol-1-yl]-2-azaspiro[3.3]heptan-2-yl]methanone], 18.3 nM.
Take `Cn1ncc(C(F)(F)F)c1CN1CCC2(CC1)CN(C(=O)N1CC3(CC(c4cc(C5CC5)n[nH]4)C3)C1)C2` [Example 64, [6-(3-cyclopropyl-1H-pyrazol-5-yl)-2-azaspiro[3.3]heptan-2-yl]-[7-[[2-methyl-4-(trifluoromethyl)pyrazol-3-yl]methyl]-2,7-diazaspiro[3.5]nonan-2-yl]methanone]: half-maximal inhibition (IC50) was put at 0.32 nM. This IC50 is about 57-fold lower than that of the molecule before.
In turn, `Cn1ncc(C(F)(F)F)c1CN1CCC2(CC1)CN(C(=O)N1CC3(CC(n4cnc(C(F)(F)F)n4)C3)C1)C2` [Example 65, [7-[[2-methyl-4-(trifluoromethyl)pyrazol-3-yl]methyl]-2,7-diazaspiro[3.5]nonan-2-yl]-[6-[3-(trifluoromethyl)-1,2,4-triazol-1-yl]-2-azaspiro[3.3]heptan-2-yl]methanone] yielded a half-inhibitory concentration (IC50) of 0.87 nM.
The value for `Cn1ncc(C(F)(F)F)c1CN1CCC2(CC1)CN(C(=O)N1CC3(CC(n4cnc(C5CC5)n4)C3)C1)C2` [Example 66, [6-(3-cyclopropyl-1,2,4-triazol-1-yl)-2-azaspiro[3.3]heptan-2-yl]-[7-[[2-methyl-4-(trifluoromethyl)pyrazol-3-yl]methyl]-2,7-diazaspiro[3.5]nonan-2-yl]methanone] was 0.41 nM; that for `Cn1ncc(C(F)(F)F)c1CN1CCC2(CC1)CN(C(=O)N1CC3(CC(n4cnc(C5(O)CC5)n4)C3)C1)C2` [Example 67, [6-[3-(1-hydroxycyclopropyl)-1,2,4-triazol-1-yl]-2-azaspiro[3.3]heptan-2-yl]-[7-[[2-methyl-4-(trifluoromethyl)pyrazol-3-yl]methyl]-2,7-diazaspiro[3.5]nonan-2-yl]methanone] was 2.12 nM; that for `Cc1cc(C(F)(F)F)nn1CC1CC2(C1)CN(C(=O)N1CC3(CC(n4cnc(C(F)(F)F)n4)C3)C1)C2` [Example 68, [6-[[5-methyl-3-(trifluoromethyl)pyrazol-1-yl]methyl]-2-azaspiro[3.3]heptan-2-yl]-[6-[3-(trifluoromethyl)-1,2,4-triazol-1-yl]-2-azaspiro[3.3]heptan-2-yl]methanone] was 5.8 nM.
The value for `Cc1cc(C(F)(F)F)nn1CC1CC2(C1)CN(C(=O)N1CC3(CC(n4cnc(C5CC5)n4)C3)C1)C2` [Example 69, [6-(3-cyclopropyl-1,2,4-triazol-1-yl)-2-azaspiro[3.3]heptan-2-yl]-[6-[[5-methyl-3-(trifluoromethyl)pyrazol-1-yl]methyl]-2-azaspiro[3.3]heptan-2-yl]methanone] was 4.09 nM; that for `Cc1cc(C(F)(F)F)nn1CC1CC2(C1)CN(C(=O)N1CC3(CC(n4cnc(C5(O)CC5)n4)C3)C1)C2` [Example 70] was 131 nM; that for `Cc1cc(C(F)(F)F)n(CC2CC3(C2)CN(C(=O)N2CC4(CC(n5cnc(C(F)(F)F)n5)C4)C2)C3)n1` [Example 71, [6-[[3-methyl-5-(trifluoromethyl)pyrazol-1-yl]methyl]-2-azaspiro[3.3]heptan-2-yl]-[6-[3-(trifluoromethyl)-1,2,4-triazol-1-yl]-2-azaspiro[3.3]heptan-2-yl]methanone] was 3.7 nM.
`Cc1cc(C(F)(F)F)n(CC2CC3(C2)CN(C(=O)N2CC4(CC(n5cnc(C6CC6)n5)C4)C2)C3)n1` [Example 72, [6-(3-cyclopropyl-1,2,4-triazol-1-yl)-2-azaspiro[3.3]heptan-2-yl]-[6-[[3-methyl-5-(trifluoromethyl)pyrazol-1-yl]methyl]-2-azaspiro[3.3]heptan-2-yl]methanone]: the IC50 stood at 3.09 nM. The IC50 values of the last two molecules are within 1.5-fold of each other.
In the case of `Cc1cc(C(F)(F)F)n(CC2CC3(C2)CN(C(=O)N2CC4(CC(n5cnc(C6(O)CC6)n5)C4)C2)C3)n1` [Example 73] it was 110 nM.
The value for `O=C(N1CC2(CC(Cn3cnc(C4(C(F)(F)F)CC4)n3)C2)C1)N1CC2(CC(c3cc(C4CC4)n[nH]3)C2)C1` [Example 74, [6-(3-cyclopropyl-1H-pyrazol-5-yl)-2-azaspiro[3.3]heptan-2-yl]-[6-[[3-[1-(trifluoromethyl)cyclopropyl]-1,2,4-triazol-1-yl]methyl]-2-azaspiro[3.3]heptan-2-yl]methanone] was 0.42 nM; that for `O=C(N1CC2(CC(Cn3cnc(C4(C(F)(F)F)CC4)n3)C2)C1)N1CC2(CC(n3cnc(C4(O)CC4)n3)C2)C1` [Example 75, [6-[3-(1-hydroxycyclopropyl)-1,2,4-triazol-1-yl]-2-azaspiro[3.3]heptan-2-yl]-[6-[[3-[1-(trifluoromethyl)cyclopropyl]-1,2,4-triazol-1-yl]methyl]-2-azaspiro[3.3]heptan-2-yl]methanone] was 7.62 nM.
In the case of `O=C(N1CC2(CC(n3cnc(C(F)(F)F)n3)C2)C1)N1CC2(CN(Cc3snnc3C3CCC3)C2)C1` [Example 76, [6-[(4-cyclobutylthiadiazol-5-yl)methyl]-2,6-diazaspiro[3.3]heptan-2-yl]-[6-[3-(trifluoromethyl)-1,2,4-triazol-1-yl]-2-azaspiro[3.3]heptan-2-yl]methanone] it was 5.73 nM; in that of `O=C(N1CC2(CC(n3cnc(C4CC4)n3)C2)C1)N1CC2(CN(Cc3snnc3C3CCC3)C2)C1` [Example 77, [6-[(4-cyclobutylthiadiazol-5-yl)methyl]-2,6-diazaspiro[3.3]heptan-2-yl]-[6-(3-cyclopropyl-1,2,4-triazol-1-yl)-2-azaspiro[3.3]heptan-2-yl]methanone], 1.62 nM.

The IC50 is the concentration that inhibits the measured activity by half. A low value points to greater potency.

(Values after patent US20260374756A1, “HETEROCYCLIC COMPOUNDS AS INHIBITORS OF MONOACYLGLYCEROL LIPASE (MAGL)” (Hoffmann-La Roche Inc., priority 2022, published 2026).)
